Earlier results on 12 compounds are cited in US20100284984A1, “ADENOSINE AND ITS MIMETICS. MODULATORS, TRANSPORT INHIBITORS, AND RECEPTOR AGONISTS AS A THERAPEUTIC TOOL TO REPLACE OR IMPROVE THE EFFICACY OF DEEP BRAIN STIMULATION” (University of Rochester, priority 2007, published 2010).

Counter-ions that a name gives are not always drawn. Like-named read-outs stand apart in the source and are kept apart here.

Series [1] has as its target S-adenosylhomocysteine hydrolase (Homo sapiens, UniProt P23526). Particulars: cited from earlier work.
Series [2] has as its target adenosine transport. The settings on record: cited from earlier work; for Ki: adenosine transport inhibitors.

S-adenosylhomocysteine hydrolase, sequence (P23526 whole entry): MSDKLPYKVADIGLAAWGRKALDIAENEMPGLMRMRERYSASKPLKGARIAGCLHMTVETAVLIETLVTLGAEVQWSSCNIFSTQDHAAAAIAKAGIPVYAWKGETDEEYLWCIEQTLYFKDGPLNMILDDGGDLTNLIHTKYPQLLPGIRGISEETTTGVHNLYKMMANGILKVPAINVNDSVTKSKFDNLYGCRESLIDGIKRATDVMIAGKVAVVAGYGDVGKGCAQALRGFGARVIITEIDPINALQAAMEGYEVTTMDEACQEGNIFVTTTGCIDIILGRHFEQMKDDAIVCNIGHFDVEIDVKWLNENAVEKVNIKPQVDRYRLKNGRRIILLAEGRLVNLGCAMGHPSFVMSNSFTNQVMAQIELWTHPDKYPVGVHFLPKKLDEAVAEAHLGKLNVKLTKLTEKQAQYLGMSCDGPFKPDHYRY

Turning to `COC(=O)C(O)CCn1cnc2c(N)ncnc21` (stereo not drawn) [DZ2002, methyl 4-(adenine-9-yl)-2-hydroxybutanoate], the Ki (commonly the dissociation constant of the complex between target and ligand, obtained from inhibition or displacement) in series [1] (read-out: Ki) was 17.9 nM. On to `Nc1ncnc2c1ncn2C[C@@H](O)[C@@H](O)C(=O)O` [DEA, eritadenine[2(R),3(R)-dihydroxy-4-(9-zdenyl)-butyric acid]], for which the Ki in series [1] was 30 nM. Consider `COc1cc(C(=O)OCCCN2CCCN(CCCOC(=O)c3cc(OC)c(OC)c(OC)c3)CC2)cc(OC)c1OC` [dilazep], for which, in series [2], the Ki was 0.1 to 1 nM.

`CCCn1cnc2c1c(=O)n(CCCCC(C)=O)c(=O)n2C` [Propentofylline]: the Ki in series [2] was 10000 to 100000 nM. In the case of `NC(=O)C1CN(CC(=O)Nc2c(Cl)cccc2Cl)CCN1CCCC(c1ccc(F)cc1)c1ccc(F)cc1` (stereo not drawn) [mioflazine], the inhibition constant Ki in series [2] (unit inferred) was 10 nM. For the compound `Cc1cccc(C)c1NC(=O)CN1CCN(CCCC(c2ccc(F)cc2)c2ccc(F)cc2)CC1` [lidoflazine], in series [2] (unit inferred), the inhibitory constant (Ki) is 100 nM.

Turning to `Nc1nccc2c1ncn2C[C@@H](O)[C@@H](O)C(=O)O` [C3-DEA, 3-deaza-DEA], the inhibition constant (Ki) in series [1] (read-out: Ki) was 1500 nM.

Turning to 3-deaza-DEA methylester [C3-OMeDEA], the Ki in series [1] (read-out: Ki) is 1500 nM. Take `O=C1CCc2cc(OCCCCc3nnnn3C3CCCCC3)ccc2N1` [cilostazol]: the IC50 (as a rule, the midpoint of a concentration-inhibition curve) in series [2] (adenosine uptake (Liu et al.)) was 10000 nM. With `Nc1ncnc2c1ncn2[C@@H]1O/C(=C\F)[C@@H](O)[C@H]1O` [ZDDFA, (Z)-4′,5′-didehydro-5′-deoxy-5′-fluoroadenosine], the Ki in series [1] is 39.9 nM. For `Cc1ncc2n1-c1ccc(Cl)cc1C(c1ccccc1F)=NC2` [midazolam], the inhibitory constant (Ki) in series [2] (unit inferred) is 1000 nM. Take `CCOc1cc2nc(N3CCOCC3)nc(N3CCC(n4c(=O)c5cc(C)ccc5n(C)c4=O)CC3)c2cc1OCC` [KF 24345, 3-[1-(6,7-diethoxy-2-morpholinoquinazolin-4-yl)piperidin-4-yl]-1,6-dimethyl-2,4(1H,3H)-quinazolinedione hydrochloride]: the Ki in series [2] is 0.1 to 1 nM.
